The test system of test [1] is DU145 human androgen-insensitive prostate cancer cell line. As to the kind of experiment: WST-1 cell proliferation assay, DU145. It counts as cell-based. A general note: Tetrazolium assays rely on reduction of a dye to a coloured formazan, in cell work by metabolically active cells.
Test [2] relates to PC-3 human androgen-insensitive prostate cancer cell line. As to the kind of experiment: WST-1 cell proliferation assay, PC-3. It counts as cell-based.
For test [3], the system named is LNCaP human androgen-sensitive prostate cancer cell line. As to the kind of experiment: WST-1 cell proliferation assay, LNCaP. The format is cell-based.
In test [4] the test system is PC-3 cells. The conditions noted are these: cited from earlier work.
For test [5], the system named is PWR-1E non-neoplastic human prostate epithelial cells. As to the kind of experiment: WST-1 cell proliferation assay, PWR-1E. The format is cell-based.
Where [6] appears, read: fold potency relative to curcumin.

As usually defined, the IC50 is the midpoint of a concentration-inhibition curve. For the compound `COc1cc(/C=C/C(=O)CC(=O)/C=C/c2ccc(O)c(OC)c2)ccc1O` [Curcumin], the IC50 was 26.2 ± 0.65 µM in test [1] (Homo sapiens, DU-145, 72 h, read-out: IC50 (μM) DU145); 25.4 ± 2.15 µM in test [2] (Homo sapiens, 72 h, read-out: IC50 (μM) PC-3); 13.6 ± 2.69 µM in test [3] (Homo sapiens, LNCaP, 72 h, read-out: IC50 (μM) LNCaP); 8.14 to 9.54 µM in test [5] (Homo sapiens, PWR-1E, 72 h, read-out: IC50 (μM) PWR-1E). In addition, the “IC50(curcumin)/IC50(trienone) DU145” value in test [1] (setting [6]) amounted to 1. In addition, in test [2] (setting [6]), the “IC50(curcumin)/IC50(trienone) PC-3” value amounted to 1. In addition, the “IC50(curcumin)/IC50(trienone) LNCaP” value in test [3] (setting [6]) is given as 1. In addition, in test [4], the “effect on PC-3 cell cycle progression” value is on record as “arresting the G1/S phase”. Moreover, in test [5] (setting [6]), the “IC50(curcumin)/IC50(trienone) PWR-1E” value came to 1.

(Values after paper PMC5486975 (European journal of medicinal chemistry, 2017).)
